ChEMBL document CHEMBL1687730, “New high-throughput screening assay to reveal similarities and differences in inhibitory sensitivities of multidrug ATP-binding cassette transporters” (Antimicrob Agents Chemother, 2009)

Key:
[1] = target: Pleiotropic ABC efflux transporter of multiple drugs (Saccharomyces cerevisiae S288c, UniProt P33302); assay: Inhibition of Pdr5p-mediated rhodamine 6G transport in Saccharomyces cerevisiae MKPDR5h plasma membrane by spectrofluorometric assay
[2] = target: Pleiotropic ABC efflux transporter of multiple drugs (Saccharomyces cerevisiae S288c) (UniProt P33302); assay: Inhibition of Saccharomyces cerevisiae MKPDR5h multidrug transporter Pdr5p assessed as concentration required to threefold increase in rate of fluorescence signal relative to absence of inhibitor by fluorescein diacetate based high-throughput screening spectrofluorometric assay
[3] = system: Saccharomyces cerevisiae; assay: Inhibition of Saccharomyces cerevisiae MKCDR1h multidrug transporter Cdr1p assessed as concentration required to threefold increase in rate of fluorescence signal relative to absence of inhibitor by fluorescein diacetate based high-throughput screening spectrofluorometric assay
[4] = target: Snq2p (Saccharomyces cerevisiae (strain Lalvin EC1118 / Prise de mousse)(Baker's yeast)) (UniProt C8Z4T0); assay: Inhibition of Saccharomyces cerevisiae MKSNQ2h multidrug transporter Snq2p assessed as concentration required to threefold increase in rate of fluorescence signal relative to absence of inhibitor by fluorescein diacetate based high-throughput screening spectrofluorometric assay
[5] = system: Saccharomyces cerevisiae; assay: Inhibition of Saccharomyces cerevisiae MKCDR1h multidrug transporter Cdr1p assessed as potentiation of ketoconazole-induced antifungal activity by Checkerboard assay

Pleiotropic ABC efflux transporter of multiple drugs, sequence (P33302 whole entry): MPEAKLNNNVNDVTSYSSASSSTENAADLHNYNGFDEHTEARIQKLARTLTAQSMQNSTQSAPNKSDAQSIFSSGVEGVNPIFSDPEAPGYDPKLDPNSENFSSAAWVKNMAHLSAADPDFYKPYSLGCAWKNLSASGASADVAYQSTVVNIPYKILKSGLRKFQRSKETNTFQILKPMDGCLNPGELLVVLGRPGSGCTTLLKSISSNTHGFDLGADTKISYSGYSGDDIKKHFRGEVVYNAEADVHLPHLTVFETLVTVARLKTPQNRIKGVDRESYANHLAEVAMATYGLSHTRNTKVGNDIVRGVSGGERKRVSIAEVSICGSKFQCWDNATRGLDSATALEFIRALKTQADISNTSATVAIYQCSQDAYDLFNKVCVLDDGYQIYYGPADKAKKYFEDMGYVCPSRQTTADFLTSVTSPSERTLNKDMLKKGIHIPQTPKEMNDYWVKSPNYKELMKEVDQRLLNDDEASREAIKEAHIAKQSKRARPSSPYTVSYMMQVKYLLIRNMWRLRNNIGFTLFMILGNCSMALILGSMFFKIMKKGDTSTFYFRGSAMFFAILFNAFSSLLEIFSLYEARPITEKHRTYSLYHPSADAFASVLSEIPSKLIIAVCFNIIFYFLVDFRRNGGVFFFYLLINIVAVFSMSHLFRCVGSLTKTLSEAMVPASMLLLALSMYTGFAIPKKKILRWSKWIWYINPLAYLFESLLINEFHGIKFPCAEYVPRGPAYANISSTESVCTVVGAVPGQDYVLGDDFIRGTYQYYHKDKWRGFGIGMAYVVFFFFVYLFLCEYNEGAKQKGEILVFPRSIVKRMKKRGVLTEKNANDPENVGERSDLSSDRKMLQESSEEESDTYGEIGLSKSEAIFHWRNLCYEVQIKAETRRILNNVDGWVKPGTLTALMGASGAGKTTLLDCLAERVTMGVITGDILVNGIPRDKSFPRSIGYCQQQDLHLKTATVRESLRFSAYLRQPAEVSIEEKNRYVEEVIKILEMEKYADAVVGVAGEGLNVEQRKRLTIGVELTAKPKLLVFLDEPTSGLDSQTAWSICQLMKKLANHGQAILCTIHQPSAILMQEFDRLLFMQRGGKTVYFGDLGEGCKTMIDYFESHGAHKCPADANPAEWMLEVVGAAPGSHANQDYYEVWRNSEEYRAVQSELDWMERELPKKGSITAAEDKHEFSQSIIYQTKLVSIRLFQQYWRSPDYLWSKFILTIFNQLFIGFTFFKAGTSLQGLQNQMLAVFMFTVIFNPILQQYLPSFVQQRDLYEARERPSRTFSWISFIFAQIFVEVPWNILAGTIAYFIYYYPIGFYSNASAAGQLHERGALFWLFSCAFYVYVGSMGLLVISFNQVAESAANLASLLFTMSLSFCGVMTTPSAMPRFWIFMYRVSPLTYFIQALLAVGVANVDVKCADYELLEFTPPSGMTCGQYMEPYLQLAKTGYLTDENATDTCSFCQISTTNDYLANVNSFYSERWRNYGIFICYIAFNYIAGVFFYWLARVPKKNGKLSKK
Pleiotropic ABC efflux transporter of multiple drugs (Saccharomyces cerevisiae S288c), sequence (P33302 whole entry): as above
Snq2p (Saccharomyces cerevisiae (strain Lalvin EC1118 / Prise de mousse)(Baker's yeast)), sequence (C8Z4T0 as listed by the source): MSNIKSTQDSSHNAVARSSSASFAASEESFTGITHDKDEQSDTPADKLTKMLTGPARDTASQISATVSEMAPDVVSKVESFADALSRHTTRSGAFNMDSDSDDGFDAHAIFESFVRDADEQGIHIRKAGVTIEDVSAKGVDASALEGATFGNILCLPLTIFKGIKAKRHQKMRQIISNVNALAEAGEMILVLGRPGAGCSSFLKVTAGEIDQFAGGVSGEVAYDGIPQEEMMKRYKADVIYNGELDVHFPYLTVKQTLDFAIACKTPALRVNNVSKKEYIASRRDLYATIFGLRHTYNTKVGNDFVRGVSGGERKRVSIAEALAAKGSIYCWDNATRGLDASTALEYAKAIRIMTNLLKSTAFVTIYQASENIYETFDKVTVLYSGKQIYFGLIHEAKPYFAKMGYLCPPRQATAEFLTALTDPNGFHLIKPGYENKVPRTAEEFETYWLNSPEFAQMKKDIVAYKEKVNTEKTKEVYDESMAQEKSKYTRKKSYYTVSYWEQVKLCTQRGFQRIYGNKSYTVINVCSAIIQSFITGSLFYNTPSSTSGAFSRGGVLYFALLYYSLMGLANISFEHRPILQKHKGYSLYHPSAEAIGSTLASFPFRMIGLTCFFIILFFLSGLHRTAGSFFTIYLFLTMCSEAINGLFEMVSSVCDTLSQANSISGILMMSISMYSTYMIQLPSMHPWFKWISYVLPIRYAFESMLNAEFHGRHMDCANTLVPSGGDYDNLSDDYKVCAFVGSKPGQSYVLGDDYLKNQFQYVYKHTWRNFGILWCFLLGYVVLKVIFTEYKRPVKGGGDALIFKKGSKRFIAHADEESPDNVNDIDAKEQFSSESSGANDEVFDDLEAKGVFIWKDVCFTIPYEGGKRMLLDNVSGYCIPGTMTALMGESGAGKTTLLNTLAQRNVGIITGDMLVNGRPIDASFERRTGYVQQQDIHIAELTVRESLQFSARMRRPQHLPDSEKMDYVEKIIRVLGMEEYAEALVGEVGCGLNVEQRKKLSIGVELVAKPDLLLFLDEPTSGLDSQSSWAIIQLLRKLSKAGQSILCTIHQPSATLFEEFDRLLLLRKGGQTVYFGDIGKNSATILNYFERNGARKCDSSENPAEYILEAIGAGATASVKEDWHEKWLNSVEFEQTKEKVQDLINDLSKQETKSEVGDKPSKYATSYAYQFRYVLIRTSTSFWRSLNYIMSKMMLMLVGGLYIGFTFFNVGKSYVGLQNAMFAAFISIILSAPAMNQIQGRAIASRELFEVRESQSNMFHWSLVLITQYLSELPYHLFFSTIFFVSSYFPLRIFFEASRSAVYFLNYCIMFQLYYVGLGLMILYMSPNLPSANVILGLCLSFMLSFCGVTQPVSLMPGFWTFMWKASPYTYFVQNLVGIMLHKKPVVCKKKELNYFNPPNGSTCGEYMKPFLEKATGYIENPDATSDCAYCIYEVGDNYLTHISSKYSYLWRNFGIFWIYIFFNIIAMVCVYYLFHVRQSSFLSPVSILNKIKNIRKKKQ

Structure (SMILES)	IC50 [1]	INH [2]	INH [3]	INH [4]	fractional inhibitory concentration index (FICI) [5]
NCCCCN1c2ccccc2Sc2ccc(Cl)cc21	0.7 µM	1.9 µM	1.9 µM	2.1 µM	0.06
NCCCCN1c2ccccc2Sc2ccc(C(F)(F)F)cc21	1.3 µM	3.7 µM	4.6 µM	4.6 µM	
NCCCCN1c2ccccc2Sc2ccccc21	3.1 µM	7 µM	29 µM	13.5 µM	
NCCCN1c2ccccc2Sc2ccc(C(F)(F)F)cc21	6.4 µM	7.7 µM	6.5 µM	6.9 µM	
NCCCN1c2ccccc2Sc2ccccc21	7.4 µM	14.7 µM	36 µM	12.4 µM	
CSc1ccc2c(c1)N(CCC1CCCCN1C)c1ccccc1S2 (stereo not drawn)		17 µM	26 µM	19.4 µM	
O=C(O)CCCCCCNC1c2ccccc2CCc2ccccc21 [AMINEPTINE]	> 400 µM	> 433 µM	> 433 µM	> 433 µM	
CN(C)CCCN1c2ccccc2Sc2ccc(Cl)cc21 [CHLORPROMAZINE]	4.5 µM	57 µM	57 µM	32 µM	
CN(C)CC/C=C1/c2ccccc2Sc2ccc(Cl)cc21 [CHLORPROTHIXENE]	5.1 µM	26 µM	53 µM	22 µM	
COc1ccc2c(c1)N(C[C@@H](C)CN(C)C)c1ccccc1S2 [DEXTROMEPROMAZINE]	9 µM	101 µM	273 µM	100 µM	
CCN(CC)CCN1c2ccccc2Sc2ccccc21 [DIETHAZINE]	10.3 µM	331 µM	317 µM	239 µM	
OCCN1CCN(CCCN2c3ccccc3Sc3ccc(C(F)(F)F)cc32)CC1 [FLUPHENAZINE]	1.7 µM	5.4 µM	12.4 µM	8.8 µM	0.09
CN(C)CCCN1c2ccccc2CCc2ccccc21 [IMIPRAMINE]	22 µM	166 µM	> 433 µM	198 µM	
COc1ccc2c(c1)N(C[C@H](C)CN(C)C)c1ccccc1S2 [LEVOMEPROMAZINE]	9.6 µM	128 µM	252 µM	100 µM	
NCCCN1c2ccccc2Sc2ccc(Cl)cc21 [NOR2-CHLORPROMAZINE]	3.2 µM	4.2 µM	4.3 µM	5.8 µM	
OCCN1CCN(CCCN2c3ccccc3Sc3ccc(Cl)cc32)CC1 [PERPHENAZINE]	1.4 µM	6.4 µM	17.2 µM	13.1 µM	
c1ccc2c(c1)Nc1ccccc1S2 [PHENOTHIAZINE]	> 400 µM	> 433 µM	> 433 µM	90 µM	
CN1CCN(CCCN2c3ccccc3Sc3ccc(Cl)cc32)CC1 [PROCHLORPERAZINE]	1.7 µM	7.2 µM	11 µM	6.6 µM	
CN(C)CCCN1c2ccccc2Sc2ccccc21 [PROMAZINE]	11.3 µM	96 µM	278 µM	131 µM	
CC(CN1c2ccccc2Sc2ccccc21)N(C)C (stereo not drawn) [PROMETHAZINE]	17.7 µM	285 µM	275 µM	117 µM	
CCSc1ccc2c(c1)N(CCCN1CCN(C)CC1)c1ccccc1S2 [THIETHYLPERAZINE]	2.3 µM	5.6 µM	9.4 µM	3.2 µM	
CN1CCN(CCCN2c3ccccc3Sc3ccc(C(F)(F)F)cc32)CC1 [TRIFLUOPERAZINE]	1.4 µM	8.3 µM	9.8 µM	6.9 µM	
CN(C)CCCN1c2ccccc2Sc2ccc(C(F)(F)F)cc21 [TRIFLUPROMAZINE]	4.9 µM	47 µM	49 µM	47 µM	
